Data: patent US20110262556A1, “SILVER/WATER, SILVER GELS AND SILVER-BASED COMPOSITIONS; AND METHODS FOR MAKING AND USING THE SAME” (AMERICAN SILVER, LLC, priority 2005, published 2011)
≈ marks a conversion by molar mass, not a printed value. Where “and” joins values, the source holds several entries; their conditions need not be identical. Equal values may be shown once. Read-outs that look alike come from different tables or passages of the source.

Key:
[1] = tested on: Pseudomonas culture
Description: (§1) Phenol Resistance. Five-one ml aliquots of each dilution of the test phenol were placed into sterile test tubes and allowed to equilibrate in a 20±2° C. water bath. At 30 second intervals, 0.5 ml of each challenge culture was added to the appropriate dilutions of phenol, agitated, and replaced into the water bath: After the appropriate exposure times of 5, 10, and 15 minutes, a loopful of suspension was removed from the assay tubes and transferred to tubes of letheen broth (LETH). The tubes of LETH were incubated at 37±2° C. for 2 days.

[2] = tested on: Salmonella culture; conditions: 5, 10 or 15 min
Description: as §1

[3] = tested on: Staphylococcus culture
Description: as §1

[4] = tested on: Mycobacterium bovis BCG (TMC 1028); assay type: cell-based
[5] = target: Moloney murine leukemia virus reverse transcriptase (MoMuLV) (Moloney murine leukemia virus, UniProt P03355); test: Reverse transcriptase inhibition; assay type: biochemical; conditions: 37° C., 24 hours; AZT control at 0.625 microgram/ml
Description: A commercial viral enzyme preparation of Moloney murine leukemia virus reverse transcriptase (MoMuLV) having Poly(A)dT (primer for RT) was used. […] of the MoMuLV preparation was combined with a mixture of dATP, dGTP, dCTP and [^3H]dTTP nucleotides.
This mixture was combined with 3 ml of the inhibitor to be tested, and the resultant mixture was incubated at 37° C. for 24 hours.
A negative control experiment was performed in which phosphate buffer saline (PBS, 3 ml) was used instead of the inhibitor.
A positive control experiment was performed in which a known reverse transcriptase inhibitor (3 ml of AZT at a concentration 0.625 microgram/ml) was used instead of the tested inhibitor.
The reaction was stopped by adding 25 ml EDTA and 25 ml TCA. The reaction mixture was then spotted on ionic paper (DEAE paper). The paper was washed three times with TCA and then with ethyl alcohol. The filter paper was air dried and put in a scintillation vial with a scintillation cocktail. Radioactivity was measured by a liquid scintillation counter (Blue Star).

[6] = tested on: MRSA clinical isolate; test: MIC, macrodilution broth
[7] = tested on: E. coil; test: Zone of inhibition, agar well; conditions: E.coli; antibiotic amount (5-200 mcg)
[8] = tested on: S.typhi; test: Zone of inhibition, agar well; conditions: antibiotic amount (5-200 mcg)
[9] = tested on: Escherichia coli MDR clinical isolate (stool); test: Antibiotic sensitivity, Kirby Bauer; conditions: E.c; Kirby-Bauer antibiotic disc
[10] = tested on: Pseudomonas aeruginosa MDR clinical isolate (sputum); test: Antibiotic sensitivity, Kirby Bauer
[11] = tested on: MRSA clinical isolate (pus); test: Antibiotic sensitivity, Kirby Bauer; conditions: Kirby-Bauer antibiotic disc
[12] = tested on: Ps. Aeruginosa; test: Zone of inhibition, agar well; conditions: antibiotic amount (5-200 mcg)
[13] = tested on: B. subtilis; test: Zone of inhibition, agar well; conditions: antibiotic amount (1-200 mcg)
[14] = tested on: S. aureus ATCC 6538 P; test: Zone of inhibition, agar well; conditions: antibiotic amount (1-200 mcg)
[15] = tested on: K. pneumoniae; test: Zone of inhibition, agar well; conditions: antibiotic amount (5-200 mcg)
[16] = target: T1, Hepatitis B virus DNA polymerase (Hepatitis B virus genotype D subtype ayw, UniProt P03156); test: DNA polymerase inhibition; assay type: biochemical; conditions: read-out: % Inhibition (DNA polymerase)
T1 construct: from tissue; host or cells: Hepatitis B virus isolated from human subjects, lysed
T1 sequence (P03156 whole entry): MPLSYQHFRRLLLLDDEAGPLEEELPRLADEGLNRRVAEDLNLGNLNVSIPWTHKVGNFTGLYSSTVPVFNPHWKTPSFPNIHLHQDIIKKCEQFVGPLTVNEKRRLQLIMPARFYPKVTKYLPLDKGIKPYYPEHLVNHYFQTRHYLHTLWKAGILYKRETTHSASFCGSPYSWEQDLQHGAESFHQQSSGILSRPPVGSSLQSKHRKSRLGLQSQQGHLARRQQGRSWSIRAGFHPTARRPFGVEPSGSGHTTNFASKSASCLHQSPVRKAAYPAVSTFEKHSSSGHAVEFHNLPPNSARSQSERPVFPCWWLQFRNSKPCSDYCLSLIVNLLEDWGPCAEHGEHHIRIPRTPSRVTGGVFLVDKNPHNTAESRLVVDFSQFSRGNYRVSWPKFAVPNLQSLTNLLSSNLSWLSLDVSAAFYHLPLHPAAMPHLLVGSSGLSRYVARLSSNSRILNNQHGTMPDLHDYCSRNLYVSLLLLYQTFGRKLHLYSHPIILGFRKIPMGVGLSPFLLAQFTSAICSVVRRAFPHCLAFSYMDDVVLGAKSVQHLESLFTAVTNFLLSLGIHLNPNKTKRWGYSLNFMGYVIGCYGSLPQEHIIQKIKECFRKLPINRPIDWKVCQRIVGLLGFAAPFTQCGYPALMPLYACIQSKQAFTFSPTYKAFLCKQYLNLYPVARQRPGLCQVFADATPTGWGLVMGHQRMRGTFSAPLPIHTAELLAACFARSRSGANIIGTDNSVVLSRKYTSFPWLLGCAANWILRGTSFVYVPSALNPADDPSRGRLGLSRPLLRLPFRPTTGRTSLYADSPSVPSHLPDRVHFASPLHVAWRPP
Description: Overall approach. Hepatitis B viral extracts from human subjects are incubated with radiolabelled nucleotides and an active inhibitor. Percent inhibition is calculated based on the amount of de novo viral nucleic acid synthesized with respect to lamivudine as a positive control and phosphate buffer saline (PBS) as a negative control.
Specific procedure. Isolated Hepatitis B virus was lysed to extract free polymerase enzyme, which is free from contaminating enzymes. A virus extract (25 ml) was added to a reaction mixture comprising dATP, dGTP, dCTP and [^3H]dTTP nucleotides (25 ml). Active inhibitor (3 ml) was added to the mixture comprising virus extract and nucleotides. The resultant mixture was incubated at 37° C. for 24 hours.
A separate negative control experiment was performed in which phosphate buffer saline (PBS, 3 ml) was used instead of the inhibitor (3 ml).
A separate positive control experiment was performed in which a known DNA polymerase inhibitor (3 ml of lamivudine at a concentration 3 mg/ml) was used instead of the tested inhibitor (3 ml).
The reaction was stopped by adding 25 ml EDTA and 25 ml TCA (trichloroacetic acid). The reaction mixture was then spotted on ionic paper (DEAE paper). The paper was washed three times with TCA and then with ethyl alcohol. […] Radioactivity was measured by a liquid scintillation counter (Blue Star). […]

[17] = tested on: MRSA 2; test: Zone of inhibition, agar well; conditions: antibiotic amount (1-200 mcg)
[18] = tested on: S. pyogenes; test: MIC/MBC broth microdilution; assay type: cell-based, Streptococcus pyogenes; conditions: Streptococcus pyogenes
[19] = tested on: S. mutans; test: MIC/MBC broth microdilution; assay type: cell-based, Streptococcus mutans; conditions: Streptococcus mutans
[20] = tested on: S gordonii; test: MIC/MBC broth microdilution; assay type: cell-based, Streptococcus gordonii; conditions: Streptococcus gordonii
[21] = tested on: S. pneumoniae; test: MIC/MBC broth microdilution; assay type: cell-based; conditions: Streptococcus pneumoniae
[22] = tested on: S. faecalis; test: MIC/MBC broth microdilution; assay type: cell-based, Streptococcus faecalis; conditions: Enterococcus faecalis
[23] = tested on: S. aureus; test: MIC/MBC broth microdilution; assay type: cell-based, Staphylococcus aureus; conditions: Staphylococcus aureus
[24] = tested on: P. aeruginosa; test: MIC/MBC broth microdilution; assay type: cell-based, Pseudomonas aeruginosa; conditions: Pseudomonas aeruginosa
[25] = tested on: E. coli; test: MIC/MBC broth microdilution; assay type: cell-based, Escherichia coli; conditions: Escherichia coli
[26] = tested on: E. aerogenes; test: MIC/MBC broth microdilution; assay type: cell-based, Enterobacter aerogenes; conditions: Klebsiella aerogenes; E. aerogenes; read-out: MIC
[27] = tested on: E. cloacae; test: MIC/MBC broth microdilution; assay type: cell-based; conditions: Enterobacter cloacae
[28] = tested on: S. typhimurium; test: MIC/MBC broth microdilution; assay type: cell-based; conditions: Salmonella enterica, TYPHIMURIUM
[29] = tested on: S arizona; test: MIC/MBC broth microdilution; assay type: cell-based, Salmonella arizona; conditions: Salmonella
[30] = tested on: S. boydii; test: MIC/MBC broth microdilution; assay type: cell-based, Shigella boydii; conditions: Shigella boydii
[31] = tested on: K. pneumoniae; test: MIC/MBC broth microdilution; assay type: cell-based, Klebsiella pneumoniae; conditions: Klebsiella pneumoniae
[32] = tested on: K. oxytoca; test: MIC/MBC broth microdilution; assay type: cell-based; conditions: Klebsiella oxytoca

## Oc1ccccc1 [phenol]
[1]; 1:80 phenol, 5 or 10 min
  growth after phenol treatment: showed growth
[1]; 1:80 phenol, 15 min
  growth after phenol treatment: no growth
[1]; 1:90 phenol, 5, 10 or 15 min
  growth after phenol treatment: showed growth
[2]; 1:90 phenol
  growth after phenol treatment: no growth
[2]; 1:100 phenol
  growth after phenol treatment: showed growth
[3]; 1:60 phenol, 5 or 10 min
  growth after phenol treatment: showed growth
[3]; 1:60 phenol, 15 min
  growth after phenol treatment: no growth
[3]; 1:70 phenol, 5, 10 or 15 min
  growth after phenol treatment: showed growth
[4]
  log reduction: ~1.81

## Cc1cn([C@H]2C[C@H](N=[N+]=[N-])[C@@H](CO)O2)c(=O)[nH]c1=O [AZT, zidovudine]
[5]
  % Inhibition (reverse transcriptase): 31.33% and 18.06%

## NCC[C@H](O)C(=O)N[C@@H]1C[C@H](N)[C@@H](O[C@H]2O[C@H](CN)[C@@H](O)[C@H](O)[C@H]2O)[C@H](O)[C@H]1O[C@H]1O[C@H](CO)[C@@H](O)[C@H](N)[C@H]1O [Amikacin]
[6]; Conc. 0.2 mcg/ml
  Growth: +
[6]; Conc. 0.4 mcg/ml
  Growth: +
[6]; Conc. 0.6 mcg/ml
  Growth: +
[6]; Conc. 0.8 mcg/ml
  Growth: −
[6]; Conc. 1 mcg/ml
  Growth: −
[6]; Conc. 2 mcg/ml
  Growth: −
[6]; Conc. 3 mcg/ml
  Growth: −
[6]; Conc. 4 mcg/ml
  Growth: −
[6]; Conc. 5 mcg/ml
  Growth: −
[6]; Staphylococcus aureus, Nutrient Broth
  MIC: 0.8 µg/mL (≈ 1.37 µM)
[7]
  zone of inhibition, antibiotics: Clear
[8]
  zone of inhibition, antibiotics: Clear
[9]
  Zone size (mm): 20 mm
[10]; Ps., Kirby-Bauer antibiotic disc
  Zone size (mm): 9 mm
[10]; gram-negative isolate Pseudomonas
  resistance of isolate: resistant
[11]
  Zone size (mm): 22 mm

## Co-Trimoxazole
[7]
  zone of inhibition, antibiotics: 24 mm
[12]
  zone of inhibition, antibiotics: Clear
[13]
  zone of inhibition, antibiotics: 15 mm
[14]
  zone of inhibition, antibiotics: Clear
[8]
  zone of inhibition, antibiotics: 27 mm
[15]
  zone of inhibition, antibiotics: 19 mm

## Nc1ccn([C@@H]2CS[C@H](CO)O2)c(=O)n1 [lamivudine]
[16]
  inhibition at 3000 µg/mL: 31.3%

## Gentamycin
[7]
  zone of inhibition, antibiotics: Clear
[12]
  zone of inhibition, antibiotics: No inhibition
[13]
  zone of inhibition, antibiotics: 18 mm
[17]
  zone of inhibition, antibiotics: 11 mm
[14]
  zone of inhibition, antibiotics: 1Clear
[8]
  zone of inhibition, antibiotics: Clear
[15]
  zone of inhibition, antibiotics: 17 mm
[9]
  Zone size (mm): 19 mm

## CN(C)[C@@H]1C(O)=C(C(N)=O)C(=O)[C@@]2(O)C(O)=C3C(=O)c4c(O)cccc4[C@@](C)(O)[C@H]3C[C@@H]12 [Tetracycline]
[18]; read-out: MBC
  MBC: > 5 µg/mL
[18]; read-out: MIC
  MIC: 0.625 µg/mL (≈ 1.41 µM)
[19]; read-out: MBC
  MBC: > 5 µg/mL
[19]; read-out: MIC
  MIC: 0.625 µg/mL (≈ 1.41 µM)
[20]; read-out: MBC
  MBC: 0.625 µg/mL (≈ 1.41 µM)
[20]; read-out: MIC
  MIC: 0.156 µg/mL (≈ 0.351 µM)
[21]; read-out: MBC
  MBC: 0.625 µg/mL (≈ 1.41 µM)
[21]; read-out: MIC
  MIC: 0.078 µg/mL (≈ 0.176 µM)
[22]; read-out: MBC
  MBC: > 5 µg/mL
[22]; read-out: MIC
  MIC: 0.313 µg/mL (≈ 0.704 µM)
[23]; read-out: MBC
  MBC: > 5 µg/mL
[23]; read-out: MIC
  MIC: 0.313 µg/mL (≈ 0.704 µM)
[24]; read-out: MBC
  MBC: 5 µg/mL (≈ 11.3 µM)
[24]; read-out: MIC
  MIC: 0.078 µg/mL (≈ 0.176 µM)
[25]; read-out: MBC
  MBC: > 5 µg/mL
[25]; read-out: MIC
  MIC: 1.67 µg/mL (≈ 3.76 µM)
[26]
  MIC: > 5 µg/mL
[27]
  MBC: > 5 µg/mL
[27]; read-out: MIC
  MIC: 1.67 µg/mL (≈ 3.76 µM)
[28]
  MBC: > 5 µg/mL
[29]; read-out: MBC
  MBC: > 5 µg/mL
[29]; read-out: MIC
  MIC: 0.625 µg/mL (≈ 1.41 µM)
[30]
  MBC: > 5 µg/mL
[31]
  MBC: > 5 µg/mL
[31]; read-out: MIC
  MIC: 2.5 µg/mL (≈ 5.63 µM)
[32]
  MBC: > 5 µg/mL
[7]
  zone of inhibition, antibiotics: 19 mm
[12]
  zone of inhibition, antibiotics: No inhibition
[17]
  zone of inhibition, antibiotics: 0.7 mm
[14]
  zone of inhibition, antibiotics: 34 mm
[8]
  zone of inhibition, antibiotics: 16 mm
[11]
  Zone size (mm): 27 mm
